In general, thermodynamic solubility refers to solubility found after equilibrating the solid with the medium.

A short description of data set [1]: Equilibrium shake flask solubility assay. The class given is physicochemical. To be noted: pH 6.5, equilibrium shake flask method; for solubility thermodynamic at 24 h: phosphate buffer, pH 6.5, aqueous buffer, thermodynamic from solid, water. How it is done: 4. Equilibrium Shake Flask Solubility Assay:
The thermodynamic solubility of compounds in water was determined by an equilibrium shake flask method (see for example: E. H. Kerns, L. Di: Drug-like Properties: Concepts, Structure Design and Methods, 276-286, Burlington, Mass., Academic Press, 2008). A saturated solution of the drug was prepared and the solution was mixed for 24 h to ensure that equilibrium was reached. The solution was centrifuged to remove the insoluble fraction and the concentration of the compound in solution was determined using a standard calibration curve.
To prepare the sample, 2 mg solid compound was weighed in a 4 mL glass vial. 1 mL phosphate buffer pH 6.5 was added. The suspension was stirred for 24 hrs at room temperature. The solution was centrifuged afterwards. To prepare the sample for the standard calibration, 2 mg solid sample was dissolved in 30 mL acetonitrile. After sonification the solution was diluted with water to 50 mL. Sample and standards were quantified by HPLC with UV-detection. For each sample two injection volumes (5 and 50 μl) in triplicates were made. Three injection volumes (5 μl, 10 μl and 20 μl) were made for the standard.
Chromatographic Conditions:
The areas of sample- and standard injections as well as the calculation of the solubility value (in mg/l) were determined by using HPLC software (Waters Empower 2 FR).

Data set [2] addresses human carbonic anhydrase-1 (Homo sapiens (Human), UniProt P00915). Nature of the data set: Carbonic anhydrase assay, carbonic anhydrase-1. The class given is biochemical. To be noted: read-out: Inhibition of Carbonic anhydrase-1: IC50. The text has this: (§1) 5. Carbonic Anhydrase Assay
(§2) The principle of the assay is based on the hydrolysis of 4-nitrophenyl acetate by carbonic anhydrases (Pocker & Stone, Biochemistry, 1967, 6, 668), with subsequent photometric determination of the dye product 4-nitrophenolate at 400 nm by means of a 96-channel spectral photometer.
(§3) 2 microL of the test compounds, dissolved in DMSO (100-fold final concentration), in a concentration range of 0.03-10 micromol/L (final), was pipetted as quadruplicates into the wells of a 96-hole microtiter plate. Wells that contained the solvent without test compounds were used as reference values (1. Wells without carbonic anhydrase for correction of the non-enzymatic hydrolysis of the substrate, and 2. Wells with carbonic anhydrase for determining the activity of the non-inhibited enzyme).
(§4) 188 microL of assay buffer (10 millimol/L of Tris/HCl, pH 7.4, 80 millimol/L of NaCl), with or without 3 units/well of carbonic anhydrase-1 [=human carbonic anhydrase-1 (Sigma, #C4396)] in order to determine carbonic anhydrase-1 inhibition or 3 units/well of carbonic anhydrase-2 [=human carbonic anhydrase-2 (Sigma, #C6165)] for measuring carbonic anhydrase-2 inhibition, was pipetted into the wells of the microtiter plate. […] IC50 values were determined by means of a 4 parameter fit.

For data set [3], the target named is human carbonic anhydrase-2 (Homo sapiens (Human), UniProt P00918). Briefly: Carbonic anhydrase assay, carbonic anhydrase-2. Format: biochemical. To be noted: read-out: Inhibition of Carbonic anhydrase-2: IC50.
Source text: as §1, §2, §3, §4

A further data set has as its target CDK9/CycT1 (Homo sapiens (Human), UniProt P50750). Briefly: CDK9/CycT1 kinase assay (TR-FRET). Format: biochemical. To be noted: Method 1. The procedure, abridged:
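Recombinant full-length His-tagged human CDK9/CycT1, insect-cell expressed and Ni-NTA purified. Substrate is a biotinylated peptide (biotin-Ttds-linked). Kinase inhibition is read out by TR-FRET.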
A general note: TR-FRET usually uses a lanthanide donor and a delayed reading to cut background.

The target of the next data set is CDK2/CycE (Homo sapiens (Human), UniProt P24941). Nature of the data set: CDK2/CycE kinase assay (TR-FRET). Format: biochemical. To be noted: Method 2. The procedure, abridged: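 Enzyme was GST-tagged human CDK2 with GST-tagged human CycE, expressed in Sf9 insect cells and glutathione-affinity purified. The kinase reaction used a biotinylated peptide substrate, with inhibition measured by TR-FRET.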

For data set [4], the system named is HeLa human cervical tumour cells. Briefly: Proliferation assay (crystal violet), HeLa. Format: cell-based. To be noted: Homo sapiens, HeLa, Method 3, read-out: Inhibition of HeLa cell proliferation, IC50. The procedure, abridged: (§5)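 First, plate 3000 (NCI-H460, HeLa), 5000 (HeLa-MaTu-ADR) or 1500 (Caco-2) cells per well; next day, fix and stain a reference plate while the others get fresh medium containing compound at […] with 0.5% DMSO; after 4 days, fix, stain with crystal violet and read at 595 nm.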

The test system of data set [5] is HeLa-MaTu-ADR, multidrug-resistant human cervical carcinoma cells. Nature of the data set: Proliferation assay (crystal violet), HeLa-MaTu-ADR. To be noted: Homo sapiens, HeLa, Method 3, read-out: Inhibition of HeLa/MaTu/ADR cell proliferation, IC50. The class given is cell-based. The procedure, abridged:
as §5

For data set [6], the system named is NCI-H460, human non-small cell lung carcinoma cells. Briefly: Proliferation assay (crystal violet), NCI-H460. To be noted: Homo sapiens, NCI-H460, NCI-H460 cells, Method 3; read-out: Inhibition of NCI-H460 cell proliferation, IC50. Format: cell-based. The procedure, abridged: as §5
Data set [7] concerns DU145, hormone-independent human prostate carcinoma cells. Briefly: Proliferation assay (crystal violet), DU145. Format: cell-based. To be noted: Homo sapiens, DU-145, DU145 cells, Method 3; read-out: Inhibition of DU145 cell proliferation, IC50. The procedure, abridged: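 DU145 hormone-independent human prostate carcinoma cells (ATCC HTB-81) were seeded at 5000 cells/well in 96-well plates in 200 μL growth medium with 10% fetal calf serum. After 24 hours, a zero-point plate was stained. The other plates got fresh medium containing test substances ([…], 0.5% dimethylsulfoxide) and were incubated for 4 days.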

Data set [8] relates to Caco-2 human colorectal carcinoma. Nature of the data set: Proliferation assay (crystal violet), Caco-2. The class given is cell-based. To be noted: Homo sapiens, Caco-2, Caco-2 cells, Method 3; read-out: Inhibition of Caco-2 cell proliferation, IC50. The procedure, abridged: as §5
Data set [9] has as its system B16F10 mouse melanoma cells. Nature of the data set: Proliferation assay (crystal violet), B16F10. The class given is cell-based. To be noted: Mus musculus, B16-F10, B16F10 cells, Method 3; read-out: Inhibition of B16F10 cell proliferation, IC50. The procedure, abridged:
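B16F10 mouse melanoma cells (ATCC CRL-6475) were seeded at 1000 cells/well into 96-well plates in 200 μL growth medium containing 10% fetal calf serum. After 24 hours, one zero-point plate was stained with crystal violet. The remaining plates got fresh medium with test substances (0 M and […], 0.5% dimethylsulfoxide) and were incubated for 4 days.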

Values after ≈ are worked out from the molar mass of the structure shown.

CDK9/CycT1, sequence (P50750 whole entry): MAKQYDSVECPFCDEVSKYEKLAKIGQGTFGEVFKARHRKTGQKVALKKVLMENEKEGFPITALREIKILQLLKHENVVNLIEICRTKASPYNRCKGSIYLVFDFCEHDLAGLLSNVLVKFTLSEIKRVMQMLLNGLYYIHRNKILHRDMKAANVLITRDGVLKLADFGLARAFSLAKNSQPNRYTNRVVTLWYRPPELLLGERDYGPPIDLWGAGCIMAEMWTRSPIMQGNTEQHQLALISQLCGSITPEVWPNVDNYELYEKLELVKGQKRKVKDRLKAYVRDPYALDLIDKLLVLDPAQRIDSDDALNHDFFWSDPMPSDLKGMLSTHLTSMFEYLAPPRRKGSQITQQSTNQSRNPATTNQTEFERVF
CDK9/CycT1, sequence (O60563 whole entry partner): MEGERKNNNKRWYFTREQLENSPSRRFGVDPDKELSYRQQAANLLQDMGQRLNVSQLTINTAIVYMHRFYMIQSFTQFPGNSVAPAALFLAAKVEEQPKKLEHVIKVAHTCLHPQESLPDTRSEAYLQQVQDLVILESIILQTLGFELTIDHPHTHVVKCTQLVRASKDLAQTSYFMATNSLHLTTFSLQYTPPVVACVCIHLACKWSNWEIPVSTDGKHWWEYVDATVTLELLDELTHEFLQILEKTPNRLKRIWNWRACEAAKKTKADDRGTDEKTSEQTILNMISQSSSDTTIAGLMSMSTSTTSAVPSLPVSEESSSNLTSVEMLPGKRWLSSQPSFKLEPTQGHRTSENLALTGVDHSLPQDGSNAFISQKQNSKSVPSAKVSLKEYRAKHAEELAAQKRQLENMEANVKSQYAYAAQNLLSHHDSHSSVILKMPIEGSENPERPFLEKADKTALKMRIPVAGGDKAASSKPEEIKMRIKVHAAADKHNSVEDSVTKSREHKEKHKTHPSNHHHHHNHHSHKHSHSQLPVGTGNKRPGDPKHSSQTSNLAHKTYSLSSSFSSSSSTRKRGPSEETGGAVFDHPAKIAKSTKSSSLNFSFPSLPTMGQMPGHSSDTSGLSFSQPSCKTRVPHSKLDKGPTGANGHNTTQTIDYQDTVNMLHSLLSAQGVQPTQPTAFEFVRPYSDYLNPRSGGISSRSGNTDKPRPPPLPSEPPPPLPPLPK
human carbonic anhydrase-1, sequence (P00915 whole entry): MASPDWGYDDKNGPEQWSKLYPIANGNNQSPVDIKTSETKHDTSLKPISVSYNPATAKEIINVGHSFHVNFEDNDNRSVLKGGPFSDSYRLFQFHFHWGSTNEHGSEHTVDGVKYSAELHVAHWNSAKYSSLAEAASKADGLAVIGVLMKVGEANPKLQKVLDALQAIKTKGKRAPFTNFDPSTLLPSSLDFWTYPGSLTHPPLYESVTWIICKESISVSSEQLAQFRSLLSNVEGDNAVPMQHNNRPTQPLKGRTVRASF

For `COc1cc(F)ccc1-c1ncnc(Nc2cccc(CS(C)(=N)=O)c2)n1` (single isomer, unassigned; (-)) [Example 3, (−)-4-(4-Fluoro-2-methoxyphenyl)-N-{3-[(S-methylsulfonimidoyl)methyl]phenyl}-1,3,5-triazin-2-amine], the thermodynamic solubility at 24 h in [1] was determined as 601 µg/mL (≈ 1550 µM). Besides, the IC50 in data set [2] and in data set [3] was more than 10 µM in each case.
As to `C#CCOc1cc(F)ccc1-c1ncnc(Nc2cccc(CS(C)(=N)=O)c2)n1` (racemic) [Example 77, (rac)-4-[4-Fluoro-2-(prop-2-yn-1-yloxy)phenyl]-N-{3-[(S-methylsulfonimidoyl)methyl]phenyl}-1,3,5-triazin-2-amine], the IC50 on CDK9/CycT1 worked out at 0.015 µM; at CDK2/CycE, 1.6 µM; in [4], 0.47 µM; in [5] it was 0.63 µM; in [6] it was 0.56 µM; in data set [7], 0.48 µM. Further, the values for the IC50 in data set [8] and in [9] were 0.3 µM and 0.52 µM, respectively. For the same compound, the solubility (thermodynamic) at 24 h in [1] came out at 256 µg/mL (≈ 622 µM).
Turning to `COc1cc(F)ccc1-c1ncnc(Nc2cccc(CS(C)(=N)=O)c2)n1` (single isomer, unassigned; (+)) [Example 4, (+)-4-(4-Fluoro-2-methoxyphenyl)-N-{3-[(S-methylsulfonimidoyl)methyl]phenyl}-1,3,5-triazin-2-amine], the IC50 in data set [2] and in data set [3] was more than 10 µM each time.
With `COc1cc(F)ccc1-c1ncnc(Nc2cccc(CS(C)(=O)=NC#N)c2)n1` (single isomer, unassigned) [Example 50, [(3-{[4-(4-fluoro-2-methoxyphenyl)-1,3,5-triazin-2-yl]amino}benzyl)(methyl)oxido-λ^6-sulfanylidene]cyanamide], the IC50 on CDK9/CycT1 was determined as 0.007 µM; on CDK2/CycE, 0.43 µM; in data set [4], 0.26 µM; in data set [5], 0.19 µM; in data set [6] it was 0.31 µM; in data set [7], 0.14 µM. The IC50 is 0.35 µM in data set [8] and 0.25 µM in data set [9]. Also, in data set [1], the “Thermodynamic solubility in water at pH 6.5” value turned out to be 126 mg/l.

Source of the values: US9669034B2, “4-aryl-N-phenyl-1,3,5-triazin-2-amines containing a sulfoximine group” (BAYER INTELLECTUAL PROPERTY GMBH, priority 2011, dated 2017).
